The values that follow come from patent US20040142952A1, “Triazoloquinazoline and pyrazolotriazolopyrimidine derivatives, medicinal compositions, adenosine a3 receptor affinity agents, ocular tension lowering agents, preparations for preventing and treating glaucoma and method of lowering ocular tension” (priority 2001, published 2004).

What is called melting point is the temperature of the solid-liquid transition. Turning to `CCc1nc2ccc(Cl)cc2c2nc(-c3ccc(Cl)cc3)nn12` [Example 86, 9-chloro-2-(4-chlorophenyl)-5-ethyl-1,2,4-triazolo[1,5-c]quinazoline], the melting point was in the range of 213 to 214 °C.

Compound `CCCCCCc1nc2nncc-2c2nc(-c3ccccc3)[nH]n12` [Example 88, 5-n-hexyl-2-phenylpyrazolo[4,3-e]-1,2,4-triazolo[1,5-c]pyrimidine] showed a melting point of 207 to 208 °C. Take `COC(=O)CCCc1nc2nncc-2c2nc(-c3ccc(OC)cc3)[nH]n12` [Example 90, methyl 4-[2-(4-methoxyphenyl)pyrazolo[4,3-e]-1,2,4-triazolo[1,5-c]pyrimidin-5-yl]butyrate]: the melting point lay within 187.5 to 188.5 °C.

The compound `COC(=O)CCCc1nc2nncc-2c2nc(-c3ccc(Cl)cc3)[nH]n12` [Example 91, methyl 4-[2-(4-chlorophenyl)pyrazolo[4,3-e]-1,2,4-triazolo[1,5-c]pyrimidin-5-yl]butyrate] displayed a melting point of 194.5 to 196.5 °C. Turning to `COC(=O)CCCc1nc2nncc-2c2nc(-c3ccc(C)cc3)[nH]n12` [Example 92, methyl 4-[2-(4-methylphenyl)pyrazolo[4,3-e]-1,2,4-triazolo[1,5-c]pyrimidin-5-yl]butyrate], the melting point is 196.5 to 197 °C.

In turn, `CCCCCc1nc2ccccc2c2nc(-c3ccccc3)nn12` [Example 93, 5-n-pentyl-2-phenyl-1,2,4-triazolo[1,5-c]quinazoline] returned a melting point of 118 to 118.5 °C. The same measure for `CCCCCCc1nc2ccccc2c2nc(-c3ccccc3)nn12` [Example 94, 5-n-hexyl-2-phenyl-1,2,4-triazolo[1,5-c]quinazoline]: 92 to 93 °C. Turning to `CCCCCc1nc2ccccc2c2nc(-c3ccc(F)cc3)nn12` [Example 95, 2-(4-fluorophenyl)-5-n-pentyl-1,2,4-triazolo[1,5-c]quinazoline], the melting point fell in the range of 133.5 to 134 °C. The same measure for `COC(=O)CCCc1nc2ccccc2c2nc(-c3ccccc3)nn12` [Example 96, methyl 4-(2-phenyl-1,2,4-triazolo[1,5-c]quinazolin-5-yl)butyrate]: 118.5 to 119.5 °C. The result for `COC(=O)CCCc1nc2ccccc2c2nc(-c3ccc(Br)cc3)nn12` [Example 97, methyl 4-[2-(4-bromophenyl)-1,2,4-triazolo[1,5-c]quinazolin-5-yl]butyrate] reads 125 to 126 °C; that for `COC(=O)CCCc1nc2ccccc2c2nc(-c3ccc(F)cc3)nn12` [Example 98, methyl 4-[2-(4-fluorophenyl)-1,2,4-triazolo[1,5-c]quinazolin-5-yl]butyrate], 167 to 168 °C; that for `COC(=O)CCCc1nc2ccccc2c2nc(-c3ccc(Cl)cc3)nn12` [Example 99, methyl 4-[2-(4-chlorophenyl)-1,2,4-triazolo[1,5-c]quinazolin-5-yl]butyrate], 128 to 129 °C.

The compound `COC(=O)CCCc1nc2ccccc2c2nc(-c3ccc(C)cc3)nn12` [Example 100, methyl 4-[2-(4-methylphenyl)-1,2,4-triazolo[1,5-c]quinazolin-5-yl]butyrate] displayed a melting point of 120.5 to 121.5 °C.

Turning to `CCCCCc1nc2ccccc2c2nc(-c3ccc(C)cc3)nn12` [Example 101, 2-(4-methylphenyl)-5-n-pentyl-1,2,4-triazolo[1,5-c]quinazoline], the melting point was 129.5 to 131 °C. In turn, `CCCCCc1nc2ccccc2c2nc(-c3ccc(Br)cc3)nn12` [Example 102, 2-(4-bromophenyl)-5-n-pentyl-1,2,4-triazolo[1,5-c]quinazoline] registered a melting point of 133 to 134 °C. The same measure for `CCCCCc1nc2ccccc2c2nc(-c3ccc(Cl)cc3)nn12` [Example 103, 2-(4-chlorophenyl)-5-n-pentyl-1,2,4-triazolo[1,5-c]quinazoline]: 118 to 119.5 °C; for `COC(=O)CCCc1nc2ccc(Cl)cc2c2nc(-c3ccc(Cl)cc3)nn12` [Example 104, methyl 4-[9-chloro-2-(4-chlorophenyl)-1,2,4-triazolo[1,5-c]quinazolin-5-yl]butyrate]: 145 to 146.5 °C. The result for `CCCCCc1nc2ccccc2c2nc(-c3ccc(OC)cc3)nn12` [Example 105, 2-(4-methoxyphenyl)-5-n-pentyl-1,2,4-triazolo[1,5-c]quinazoline] reads 123 to 125 °C. `CCCCCc1nc2ccccc2c2nc(-c3ccc(OCC)cc3)nn12` [Example 106, 2-(4-ethoxyphenyl)-5-n-pentyl-1,2,4-triazolo[1,5-c]quinazoline] came in with a melting point of 116 to 117 °C. The same measure for `CCCCc1nc2c(cnn2C)c2nc(-c3ccccc3)nn12` [Example 110, 5-n-butyl-7-methyl-2-phenylpyrazolo[4,3-e]-1,2,4-triazolo[1,5-c]pyrimidine]: 172 to 173 °C; for `CCCCc1nc2nn(C)cc2c2nc(-c3ccccc3)nn12` [Example 111, 5-n-butyl-8-methyl-2-phenylpyrazolo[4,3-e]-1,2,4-triazolo[1,5-c]pyrimidine]: 184 to 185 °C; for `CCCCc1nc2c(cnn2CCC)c2nc(-c3ccccc3)nn12` [Example 112, 5-n-butyl-2-phenyl-7-n-propylpyrazolo[4,3-e]-1,2,4-triazolo[1,5-c]pyrimidine]: 100.5 to 101.5 °C. `CCCCc1nc2nn(CCC)cc2c2nc(-c3ccccc3)nn12` [Example 113, 5-n-butyl-2-phenyl-8-n-propylpyrazolo[4,3-e]-1,2,4-triazolo[1,5-c]pyrimidine] displayed a melting point of 107 to 108 °C. As to `CCCCc1nc2c(cnn2CC)c2nc(-c3ccccc3)nn12` [Example 114, 5-n-butyl-7-ethyl-2-phenylpyrazolo[4,3-e]-1,2,4-triazolo[1,5-c]pyrimidine], the melting point was in the range of 146 to 147 °C. `CCCCc1nc2nn(CC)cc2c2nc(-c3ccccc3)nn12` [Example 115, 5-n-butyl-8-ethyl-2-phenylpyrazolo[4,3-e]-1,2,4-triazolo[1,5-c]pyrimidine]: the melting point is 122.5 to 123 °C.

In the case of `CCCCc1nc2c(cnn2Cc2ccccc2)c2nc(-c3ccccc3)nn12` [Example 116, 7-benzyl-5-n-butyl-2-phenylpyrazolo[4,3-e]-1,2,4-triazolo[1,5-c]pyrimidine], the melting point was in the range of 108 to 109 °C.

In the case of `CCCCc1nc2nn(Cc3ccccc3)cc2c2nc(-c3ccccc3)nn12` [Example 117, 8-benzyl-5-n-butyl-2-phenylpyrazolo[4,3-e]-1,2,4-triazolo[1,5-c]pyrimidine], the melting point fell in the range of 159 to 160 °C.

`CCCCc1nc2c(cnn2C)c2nc(-c3ccc(Cl)cc3)nn12` [Example 118, 2-(4-chlorophenyl)-5-n-butyl-7-methylpyrazolo[4,3-e]-1,2,4-triazolo[1,5-c]pyrimidine] gave a melting point of 147.5 to 148.5 °C. In turn, `CCCCc1nc2nn(C)cc2c2nc(-c3ccc(Cl)cc3)nn12` [Example 119, 2-(4-chlorophenyl)-5-n-butyl-8-methylpyrazolo[4,3-e]-1,2,4-triazolo[1,5-c]pyrimidine] displayed a melting point of 203.5 to 205 °C. The same measure for `CCCCc1nc2c(cnn2C)c2nc(-c3ccc(C)cc3)nn12` [Example 120, 5-n-butyl-7-methyl-2-(4-methylphenyl)pyrazolo[4,3-e]-1,2,4-triazolo[1,5-c]pyrimidine]: 156 to 157 °C.
